# Laboratory results as given in patent US10022422B2, “Peptidomimetic macrocycles” (priority 2009, dated 2018).
# Where a SMILES comes first, the peptide text is derived from it. Bridges are numbered along the chain shown (N, C = ends). [ ]: non-standard residue; d: D form. S5 = C=CCCC[C@](C)(N)C(=O)O; Nle = CCCC[C@H](N)C(=O)O
# Assay: Figure 6
# Parameters: AUC,all / AUC,inf: concentration or dose not given beside the values
# Description: Table printed on a drawing sheet, Figure 6
# First reader's note: The head SP-2 is printed shifted to the left of its column of values.
SMILES,"AUC,all [ng·h/mL]","AUC,inf [ng·h/mL]",Cl [mL/min/kg],"Cmax, obs [ng/mL]",MRT [min],T1/2 [min],Vss [L/kg]
"CCCC[C@H](NC(C)=O)C(=O)N[C@@H](CC(=O)O)C(=O)N[C@H](C(=O)N[C@@H](CC(N)=O)C(=O)N1CCC[C@H]1C(=O)N[C@H](C(=O)N[C@@H](CC(C)C)C(=O)N[C@@]1(C)CCCC=CCCC[C@@](C)(C(=O)N[C@@H](C)C(=O)N[C@@H](C)C(=O)N[C@@H](CCC(N)=O)C(N)=O)NC(=O)[C@H](CCCCN)NC(=O)[C@H](CC(C)C)NC(=O)[C@H](Cc2ccccc2)NC1=O)[C@@H](C)O)C(C)C [SP-10, Ac-NleDVNPTL$FLK$AAQ-NH2] (Ac-[Nle]DVNPTL[S5]FLK[S5]AAQ-NH2; staple 8-12)",5770,5800,8.85,11408,33,33.6,0.29
"CCCC[C@H](NC(C)=O)C(=O)N[C@@H](CC(=O)O)C(=O)N[C@H](C(=O)N[C@@H](CC(N)=O)C(=O)N1CCC[C@H]1C(=O)N[C@H](C(=O)N[C@@H](CC(C)C)C(=O)N[C@@H](CC(C)C)C(=O)N[C@@H](Cc1ccccc1)C(=O)N[C@@]1(C)CCCC=CCCC[C@@](C)(C(=O)N[C@@H](CCCNC(=N)N)C(N)=O)NC(=O)[C@H](C)NC(=O)[C@H](C(C)C)NC(=O)[C@H](CCCCN)NC1=O)[C@@H](C)O)C(C)C [SP-11, Ac-NleDVNPTLLF$KVA$R-NH2] (Ac-[Nle]DVNPTLLF[S5]KVA[S5]R-NH2; staple 10-14)",9065,9100,5.67,18748,31.2,32.4,0.178
